Data from ChEMBL document CHEMBL1201862, “PubChem BioAssay data set” (2004).
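Briefly, cells in 96-well plates were exposed to five compound concentrations for 48 h, and endpoints were estimated by linear interpolation. GI50 is the concentration that inhibits growth by half.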 Calls of active or inactive are those of the source. No stated cut-off is given here; in the data, active = GI50 up to about 1.1 µM and inactive = higher.

Assays:
Assay in all cases: growth of human tumour cells (NCI), 48 h
[1] = test system: SW-620
[2] = test system: CCRF-CEM
[3] = test system: UO-31
[4] = test system: HOP-92
[5] = test system: NCI/ADR-RES
[6] = test system: Hs-578T
[7] = test system: Malme-3M
[8] = test system: MDA-MB-435
[9] = test system: HT-29
[10] = test system: SK-OV-3
[11] = test system: SF-539
[12] = test system: MCF7
[13] = test system: UACC-62
[14] = test system: HCT-116
[15] = test system: MDA-N
[16] = test system: M14
[17] = test system: SNB-19
[18] = test system: DU-145
[19] = test system: COLO 205
[20] = test system: HCC 2998

Row | SMILES | GI50 [1] | GI50 [2] | GI50 [3] | GI50 [4] | GI50 [5] | GI50 [6] | GI50 [7] | GI50 [8] | GI50 [9] | GI50 [10] | GI50 [11] | GI50 [12] | GI50 [13] | GI50 [14] | GI50 [15] | GI50 [16] | GI50 [17] | GI50 [18] | GI50 [19] | GI50 [20]
1 | Nc1[nH]nc2ccccc12 | > 100 µM (inactive) | > 100 µM (inactive) | 83.4 µM (inactive) | > 100 µM (inactive) | > 100 µM (inactive) | > 100 µM (inactive) | > 100 µM (inactive) | > 100 µM (inactive) | > 100 µM (inactive) | > 100 µM (inactive) | > 100 µM (inactive) | > 100 µM (inactive) | 73.1 µM (inactive) | > 100 µM (inactive) | > 100 µM (inactive) | > 100 µM (inactive) | > 100 µM (inactive) | > 100 µM (inactive) | > 100 µM (inactive) | –
2 | CCOC(=O)c1c(N=C(S)Nc2ccc(Cl)cc2)sc2c1CCN(C)C2 | – | 26.9 µM (inactive) | 83 µM (inactive) | – | > 100 µM (inactive) | > 100 µM (inactive) | – | – | > 100 µM (inactive) | – | 72.6 µM (inactive) | > 100 µM (inactive) | > 100 µM (inactive) | > 100 µM (inactive) | > 100 µM (inactive) | > 100 µM (inactive) | > 100 µM (inactive) | > 100 µM (inactive) | > 100 µM (inactive) | –
3 | O=c1[nH]c2nccnc2c2c([N+](=O)[O-])cccc12 | > 100 µM (inactive) | > 100 µM (inactive) | 44.1 µM (inactive) | – | > 100 µM (inactive) | 55.5 µM (inactive) | > 100 µM (inactive) | > 100 µM (inactive) | > 100 µM (inactive) | > 100 µM (inactive) | > 100 µM (inactive) | > 100 µM (inactive) | > 100 µM (inactive) | > 100 µM (inactive) | > 100 µM (inactive) | > 100 µM (inactive) | > 100 µM (inactive) | > 100 µM (inactive) | > 100 µM (inactive) | > 100 µM (inactive)
4 | Nc1ccc(Oc2ccc(C34CC5C6CC7(c8ccc(Oc9ccc(N)cc9)cc8)CC5C(C3)C(C7)C6C4)cc2)cc1 | > 100 µM (inactive) | > 100 µM (inactive) | > 100 µM (inactive) | > 100 µM (inactive) | > 100 µM (inactive) | > 100 µM (inactive) | > 100 µM (inactive) | > 100 µM (inactive) | > 100 µM (inactive) | – | – | > 100 µM (inactive) | > 100 µM (inactive) | > 100 µM (inactive) | > 100 µM (inactive) | > 100 µM (inactive) | > 100 µM (inactive) | > 100 µM (inactive) | > 100 µM (inactive) | –
5 | O=C(CN1CCCC1=O)CS(=O)(=O)c1ccccc1 | > 100 µM (inactive) | > 100 µM (inactive) | > 100 µM (inactive) | – | > 100 µM (inactive) | > 100 µM (inactive) | > 100 µM (inactive) | > 100 µM (inactive) | > 100 µM (inactive) | – | > 100 µM (inactive) | > 100 µM (inactive) | > 100 µM (inactive) | > 100 µM (inactive) | > 100 µM (inactive) | > 100 µM (inactive) | > 100 µM (inactive) | > 100 µM (inactive) | > 100 µM (inactive) | > 100 µM (inactive)
6 | COC(=O)NC1(NC(=O)OC)NC(=O)c2cc(OC)c(OC)c(OC)c2N1 | 18.2 µM (inactive) | 82 µM (inactive) | 46.2 µM (inactive) | – | 15.1 µM (inactive) | 13.3 µM (inactive) | 1.33 µM (inactive) | – | 36.9 µM (inactive) | 2.62 µM (inactive) | 23.6 µM (inactive) | 30.3 µM (inactive) | 30.1 µM (inactive) | 26.1 µM (inactive) | 3.15 µM (inactive) | 21.8 µM (inactive) | 44.9 µM (inactive) | 32 µM (inactive) | 18.7 µM (inactive) | 9.14 µM (inactive)
7 | Cc1ccc(NNc2cc(=O)[nH]c(=O)[nH]2)cc1Cl | 14.4 µM (inactive) | 11.1 µM (inactive) | 3.25 µM (inactive) | 14.4 µM (inactive) | 95.3 µM (inactive) | 83.2 µM (inactive) | 17.8 µM (inactive) | – | 15 µM (inactive) | 41.4 µM (inactive) | 19.5 µM (inactive) | – | 18.3 µM (inactive) | 14.9 µM (inactive) | 15.2 µM (inactive) | 13.7 µM (inactive) | 24.4 µM (inactive) | 37 µM (inactive) | 16.6 µM (inactive) | 15.7 µM (inactive)
8 | O=C1CN(c2ccc(Cl)cc2)C(=O)CN1NCNN1CC(=O)N(c2ccc(Cl)cc2)CC1=O | > 100 µM (inactive) | > 100 µM (inactive) | > 100 µM (inactive) | > 100 µM (inactive) | – | > 100 µM (inactive) | > 100 µM (inactive) | > 100 µM (inactive) | > 100 µM (inactive) | > 100 µM (inactive) | > 100 µM (inactive) | > 100 µM (inactive) | > 100 µM (inactive) | > 100 µM (inactive) | > 100 µM (inactive) | > 100 µM (inactive) | > 100 µM (inactive) | > 100 µM (inactive) | > 100 µM (inactive) | > 100 µM (inactive)
9 | O=C1N[C@@H](COc2ccc(/C=N/c3ccc(CCc4ccc(/N=C/c5ccc(OC[C@@H]6COC(=O)N6)cc5)cc4)cc3)cc2)CO1 | > 100 µM (inactive) | – | > 100 µM (inactive) | – | > 100 µM (inactive) | > 100 µM (inactive) | > 100 µM (inactive) | > 100 µM (inactive) | > 100 µM (inactive) | > 100 µM (inactive) | – | – | > 100 µM (inactive) | > 100 µM (inactive) | > 100 µM (inactive) | > 100 µM (inactive) | > 100 µM (inactive) | > 100 µM (inactive) | > 100 µM (inactive) | –
10 | COC(=O)C12OC(C)(C(CC(=O)OC(C)(C)C)C1=O)C1C(=O)N(c3ccccc3)C(=O)C12 (stereo not given) | > 100 µM (inactive) | > 100 µM (inactive) | > 100 µM (inactive) | > 100 µM (inactive) | > 100 µM (inactive) | > 100 µM (inactive) | > 100 µM (inactive) | > 100 µM (inactive) | > 100 µM (inactive) | > 100 µM (inactive) | – | – | > 100 µM (inactive) | > 100 µM (inactive) | > 100 µM (inactive) | > 100 µM (inactive) | > 100 µM (inactive) | > 100 µM (inactive) | > 100 µM (inactive) | > 100 µM (inactive)
11 | CCC1=C(C)C(=O)N/C1=C\c1[nH]c(C)c([C@H](C)CCN)c1C | 16.6 µM (inactive) | 23 µM (inactive) | 15.8 µM (inactive) | 14.6 µM (inactive) | 20 µM (inactive) | 11.9 µM (inactive) | 18.7 µM (inactive) | 15.3 µM (inactive) | 15.7 µM (inactive) | 16.9 µM (inactive) | 0.0944 µM (active) | 15.5 µM (inactive) | 17.3 µM (inactive) | 14.5 µM (inactive) | 15.3 µM (inactive) | 15.8 µM (inactive) | – | 16.9 µM (inactive) | 16.4 µM (inactive) | –
12 | C=CCCON(C(=O)OC(C)(C)C)C(C)(C)C | > 100 µM (inactive) | > 100 µM (inactive) | > 100 µM (inactive) | > 100 µM (inactive) | > 100 µM (inactive) | > 100 µM (inactive) | > 100 µM (inactive) | > 100 µM (inactive) | > 100 µM (inactive) | > 100 µM (inactive) | > 100 µM (inactive) | – | > 100 µM (inactive) | > 100 µM (inactive) | > 100 µM (inactive) | > 100 µM (inactive) | > 100 µM (inactive) | > 100 µM (inactive) | > 100 µM (inactive) | –
13 | S=C(N/N=C(/c1ccccc1)c1ccccn1)N1CCCCC1 | < 0.0226 µM (active) | < 0.0134 µM (active) | 0.0716 µM (active) | 0.546 µM (active) | – | 0.237 µM (active) | 0.441 µM (active) | 0.134 µM (active) | < 0.016 µM (active) | < 0.0387 µM (active) | 0.424 µM (active) | 0.0425 µM (active) | 0.16 µM (active) | 0.01 µM (active) | < 0.038 µM (active) | 0.001 µM (active) | 0.966 µM (active) | 0.618 µM (active) | < 0.0214 µM (active) | 0.219 µM (active)
14 | CCC1(CC)C(=O)N(C(=O)c2ccc(C)cc2)N(C(=O)c2ccc(C)cc2)C1=O | 29.8 µM (inactive) | 33.1 µM (inactive) | > 75 µM (inactive) | – | 34.2 µM (inactive) | > 75 µM (inactive) | 14.4 µM (inactive) | > 75 µM (inactive) | > 75 µM (inactive) | > 75 µM (inactive) | – | 45.5 µM (inactive) | > 75 µM (inactive) | 32.2 µM (inactive) | 63.2 µM (inactive) | > 75 µM (inactive) | > 75 µM (inactive) | > 75 µM (inactive) | > 75 µM (inactive) | > 75 µM (inactive)
15 | NC(Cc1cc(I)c(Oc2ccc(O)c(I)c2)c(I)c1)C(=O)O (stereo not given) [RATHYRONINE] | > 100 µM (inactive) | – | > 100 µM (inactive) | 82.4 µM (inactive) | > 100 µM (inactive) | 37.9 µM (inactive) | 36.8 µM (inactive) | > 100 µM (inactive) | > 100 µM (inactive) | > 100 µM (inactive) | – | 41.6 µM (inactive) | 64.4 µM (inactive) | > 100 µM (inactive) | > 100 µM (inactive) | > 100 µM (inactive) | 80.9 µM (inactive) | > 100 µM (inactive) | > 100 µM (inactive) | –
